The values that follow come from US20260174179A1, “ANTI-INFECTIVE SHOE SOLES” (priority 2019, published 2026).

This assay relates to Pseudomonas aeruginosa (PAO). In words: Kirby-Bauer disk diffusion test, agar overlay culture. In kind it is cell-based. The conditions noted are these: 6 mm disk, 24 hours at 37° C. The protocol: FIG. 13 is a schematic illustrating a Kirby-Bauer Disk Diffusion test. Bacterial cells are plated from a broth culture onto sterile agar petri dishes, and antibiotic soaked paper disks (or control disks without antibiotic) are placed directly on the dish. After 24 or more hours, a confluent layer of bacteria appear to grow up on the dish. Clearing or clear but hazy zones indicate antibiotic sensitivity of the test microbe. The size of the killing zone reflects how well the antibiotic diffuses into the agar and sensitivity of the organism.
FIG. 14A is an image showing the results of a Disk Diffusion test with Pseudomonas aeruginosa (PAO). Three disks were placed on a PAO/agar overlay culture: a penicillin-soaked paper disk, a negative control (no treatment) paper disk, and a sterile punch disk of pure elemental sheet copper, and the culture was incubated for 24 hours. Zones of inhibition are marked as clearing zones (dashed circles) where bacterial growth was stunted. […]
In some studies, a disk-diffusion test was used as a model for testing diffusion and bacterial targeting (FIG. 13). […] The bacteria were allowed to grow on the agar media, and growth was observed using a simple read-out: a zone of clearing around a disk indicated no bacterial growth, and conversely, the lack of a clearing perimeter indicated bacterial resistance. […]
In general terms: A growth-free zone around the sample is the usual read-out of agar diffusion tests.

Take penicillin: the “clearing extended from the edge of the disk” value is given as 5-7 mm. Where the note is “FIG. 14A”, this substance returned a killing zone of 6 mm.
